The subject of one data set is cholangiocarcinoma. The note with it: in vitro; Kanno et al., Hepatology, 2002; cited from earlier work.
For the next data set, the system named is MC38 colon cancer. Description: MC38 colon cancer tumor growth (FIG. 25A). The note with it: 5 mg/kg, i.p. It counts as in vivo, mice. How it is done: (§1) FIGS. 25A-B is a set of curves showing the tumor growth of MC38 (FIG. 25A) or CT26 (FIG. 25B) colon cancer in mice treated with PBS (Control; closed circles), clonidine (5 mg/kg, i.p; closed squares) or apraclonidine (5 mg/kg, i.p; closed triangles).

For data set [1] the following is noted: stated without a test; cited from earlier work.
For a further data set, the system named is CT26 colon cancer. As to the kind of experiment: CT26 colon cancer tumor growth (FIG. 25B). In kind it is in vivo, mice. The note with it: 5 mg/kg, i.p. How it is done: as §1

On to brimonidine tartrate [UK14,304], for which the cholangiocarcinoma growth entry in the data set with cholangiocarcinoma is listed as “significantly decreases cholangiocarcinoma growth”.

As for `Nc1cc(Cl)c(N=C2NCCN2)c(Cl)c1` [apraclonidine], the tumor growth result with MC38 colon cancer and in the data set with CT26 colon cancer was “anti-tumor effect” in each case. Also, the “crossing of the blood-brain barrier” value in data set [1] is “does not cross the blood-brain barrier”.

The record behind these values is patent US20230165836A1, “ALPHA-2 ADRENERGIC RECEPTOR AGONISTS FOR THE TREATMENT OF CANCER” (UNIVERSITÉ CATHOLIQUE DE LOUVAIN, priority 2020, published 2023).
